Data on 4 compounds can be found in US20250269072A1, “PROCESSES FOR PREPARING RADIOLABELLED CONJUGATES” (CENTENARY INSTITUTE OF CANCER MEDICINE AND CELL BIOLOGY, priority 2021, published 2025).

In one data set the test system is proliferating cells. The conditions noted are these: cited from earlier work.
In data set [1] the test system is quiescent endothelial cells. As to conditions: quiescent endothelial cells in vitro; cited from earlier work.
The next data set has as its system angiogenesis. The conditions noted are these: in vivo; cited from earlier work.
For data set [2] the following is noted: cited from earlier work.
Data set [3] can be described thus: In vitro stability of labelled NODAGA-GSAO products at room temperature (HPLC). It is filed as physicochemical. As to the method: The in vitro stability of the complexed product is an important determinant for the potential clinical use of a therapeutic compound. Post-labelling stability was assessed by incubation of the ^175Lu- and ^63Cu-labelled NODAGA-GSAO products at room temperature.
The percentage of labelling at different time-points following formation of the isotope-NODAGA-GSAO complex was measured. Results are shown in FIG. 5 for A) the ^175Lu-labelled product obtained from incubation for 30 minutes at pH 5.0 at 80° C. and B) the ^63Cu-labelled product obtained from incubation for 30 minutes at pH 5.0 at room temperature. At certain time points, aliquots were taken and the labelling (black circles) of NODAGA-GSAO were assessed by HPLC. Data are from one or two (average±S.D. of the two measurements) experiments.

Data set [4] in a line: Radiolysis of ^177Lu-CDI after synthesis (radio-HPLC). The data set is classed as physicochemical. Here is the method: Labelling of CDI (54 μg) with ^177Lutetium (^177Lu) was performed in 0.083 M sodium acetate buffer at pH 5.0. 177Lu (500 MBq) and ascorbic acid (0.002 M) were added and the mixture was incubated at 85° C. for 30 min. In a similar reaction, CDI was labelled with ^177Lu in the presence of 0.01 M ascorbic acid and 0.028 M GSH.
The experiments using the radioisotope ^177Lu were performed on a Shimadzu LC-20 series LC system with two LC-20AP pumps, an SPD-20A UV/VIS detector and analysed using the LabLogic Laura software (version 4.2.11.129 SP2). […] The analytical column was an Alltima HP C18 150×4.6 mm 5 μm particle size (Hichrom, Berkshire, UK). The column was equilibrated in a mixture of 0.1% (v/v) trifluoroacetic acid in MiliQ water (mobile phase A) and acetonitrile (mobile phase B; 98/2, v/v). Samples (100 μL) were loaded on the column using the autosampler at room temperature. Products were eluted using a gradient of […] mobile phase B in mobile phase A over 0-18-28-38-42 min (^177Lu) or 0-18-28-32-33 min (^175Lu) at a flowrate of 0.6 mL/min. Absorbance was measured at 210 nm, 256 nm, and 280 nm and radioactivity was detected using a LabLogic Dual Scan-RAM.

A short description of data set [5]: ^177Lu-CDI dosimetry estimated from ^68Ga-CDI biodistribution and kinetics. More on the design: species or system human. The source says: The biodistribution and kinetics of ^68Ga-CDI was used to estimate […] dosimetry. […] These are similar to measured renal doses from ^177Lu-dotatate and ^177Lu-PSMA. Based on these estimations and comparability of renal dose to ^177Lu-dotatate and ^177Lu-PSMA, the initial […] level of ^177Lu-CDI will be approximately 2.0 GBq.

Setting [6] is: Afshar-Oromieh et al., 4 subjects.

Where two headings read alike, the source gives them in different places.

Turning to `N[C@@H](CCC(=O)N[C@@H](CSCC(=O)Nc1ccc([As](O)O)cc1)C(=O)NCC(=O)O)C(=O)O` [GSAO, 4-(N—(S-glutathionylacetyl)amino)phenylarsenous acid], the toxicity result with proliferating cells is recorded as “toxic to proliferating cells”; in data set [1], “nontoxic to quiescent endothelial cells in vitro”. In addition, the effect on angiogenesis result with angiogenesis is recorded as “inhibits angiogenesis in vivo”.
For the compound `O=C([O-])CN(CCN(CC(=O)[O-])Cc1cc(CCC(=O)NCCCCCC(=O)NCCCC[C@H](NC(=O)N[C@@H](CCC(=O)O)C(=O)O)C(=O)O)ccc1[O-])Cc1cc(CCC(=O)O)ccc1[O-].[68Ga+3].[OH3+]` [^68Ga PSMA], in data set [2] (setting [6]), the mean effective dose was 2.3E-02 mSv/MBq, the renal dose is given as 2.6E-01 mSv/MBq and the urinary bladder dose is given as 1.3E-01 mSv/MBq. Further, in data set [2] (Pfob et al., 5 subjects), the Effective Dose is 2.37E-02 mSv/MBq, the renal dose is 1.21E-01 mSv/MBq and the urinary bladder dose is recorded as 1.64E-01 mSv/MBq.
For the compound `O=C(O)CNC(=O)[C@H](CSCC(=O)Nc1ccc([As](O)O)cc1)NC(=O)CC[C@H](NC(=O)CCC1C(=O)[O][175Lu]2[O]C(=O)CN3CCN(CCN1CC3)CC(=O)[O]2)C(=O)O` (stereo partly drawn) [^175Lu-NODAGA-GSAO], the by-products in data set [3] (room temperature storage) is 4-7.5 % of total AUC. Moreover, the labelling remaining in data set [3] (room temperature, after 14 days of storage) is on record as approximately 90%.
For `O=C(O)CNC(=O)[C@H](CSCC(=O)Nc1ccc([As](O)O)cc1)NC(=O)CC[C@H](NC(=O)CCC1C(=O)[O][177Lu]2[O]C(=O)CN3CCN(CCN1CC3)CC(=O)[O]2)C(=O)O` (stereo partly drawn) [^177Lu-NODAGA-GSAO], in data set [4] ([…] incubation at room temperature, 0.002 M ascorbic acid), the radiolysis after synthesis result is listed as “did not show an increase in radiolysis”. Further, in data set [4] (labelling in presence of 0.01 M ascorbic acid and 0.028 M GSH), the radiolysis entry is “prevented radiolysis during and up to 72 h post CDI labelling”. Moreover, the estimated renal dose in data set [5] (combined physical decay and biological clearance model) is 0.36 mGy/MBq; in data set [5] (physical decay only model), 0.98 mGy/MBq.
